Reference: patent US8367887B2, “Normal-tension glaucoma model and method for evaluation of test substances by using same” (Shinshu University, priority 2007, dated 2013)
Counter-ions that a name gives are not always drawn.

How the values were obtained:
retinal ganglion cells [1] = experiment: Susceptibility of NMDA-induced neurotoxicity (intravitreal NMDA, count of live ganglion cells) in wild-type and NF-κBp50-deficient mice; format: in vivo, mouse; conditions: for cell death in GCL (ganglion cell layer): 2 months old, 10 nmol NMDA intravitreal, 24 hours, FIG. 5
Procedure: (§1) Intravitreal NMDA injection was performed. 2 μl of 5 mM solution of NMDA in buffered saline solution (BSS) was injected into the vitreous of the left eye of each mouse aged 2 months. The right eyes were injected with BSS alone. At 24 hours and 4 days after injection, the eyes were enucleated and fixed in 4% paraformaldehyde in PB, followed by dehydration and paraffin embedding. Tranverse sections were made through the optic disc and stained with hematoxylin and eosin (H&E). Cells of 0.35 mm length at 0.3 mm from the edge of the optic disc in the ganglion cell layer were counted except for cells infiltrating the ganglion cell layer. The average number of cells per field was analyzed, and statistical differences were analyzed by the Student's t test.
Since NMDA receptor-mediated excitotoxicity has been reported to contribute to glaucomatous neuropathy and the NMDA receptor-mediated […] leads apoptosis of the neurons, the effect of NF-κBp50 on NMDA-induced neurotoxicity was examined. NMDA has excitotoxicity at a high concentration of 100 nmol which promptly leads cell death. The results of histological examination of the retinas at 24 hours after intravitreal injection of 10 nmol NMDA, which is a relatively low concentration as for NMDA-induced neurotoxicity, are shown in FIG. 5.
The live cells were counted in length of 0.35 mm at 0.3 mm each from the edge of the optic disc. Bar graphs show the number of cells in GCL at time before and 24 hours after NMDA-treatment. The average number of cells per field was analyzed by the two-tailed t-test. Statistical differences were analyzed by the Student's t test. Data are mean±SEM (n=6 to 7 mice). *1p<0.01 versus wild-type mice. *2p<0.01 versus wild-type mice.
[…] of NMDA were directly administered into vitreous respectively, and then the number of live ganglion cells was counted. As a control, the number of live ganglion cells without administration of NMDA was also counted. […] On the other hand, in the case of wild-type mice and NF-κBp50-deficient mice with injection of […] NMDA, which is a relatively low concentration, while almost all of the ganglion cells in wild-type mice survived at 4 days after NMDA treatment, about 60% of the ganglion cells in NF-κBp50-deficient mice were dead within 24 hours by apoptosis and moreover almost all of them were dead within 96 hours.

retinal ganglion cells [2] = experiment: Screening of test substances: protection of retinal ganglion cells from NMDA-induced apoptosis in wild-type and NF-κBp50-deficient mice; format: in vivo, mouse; conditions: 5 mM NMDA into vitreous; for effect of protecting retinal ganglion cells from NMDA-induced apoptosis (conclusion in words): wild-type and NF-κBp50-deficient mice, 24 hours
Procedure: as §1
By intraperitoneal administration, phosphate buffered saline (PBS) as control substance was respectively administered to wild-type mice and NF-κBp50-deficient mice once daily for 7 days. 5 mM of NMDA was directly administered into vitreous of the mice, and then the number of retinal ganglion cells after 24 hours was counted.
By intraperitoneal administration, 10 mg/kg of memantine hydrochloride, which is used as a curative medicine for Alzheimer type dementia and is an antagonist of NMDA receptor as one of glutamic acid receptor, was respectively administered to wild-type mice and […] mice once daily for 7 days. 5 mM of NMDA was directly administered into vitreous of the mice, and then the number of retinal ganglion cells after 24 hours were counted.
100 mg/kg of lomerizine hydrochloride, which is used as a curative medicine for migraine and is a piperazine-type calcium inhibitor, was respectively administered orally via catheters to wild-type mice and NF-κBp50-deficient mice once daily for 7 days. 5 mM of NMDA was directly administered into vitreous thereof, and then the number of retinal ganglion cells after 24 hours was numerated.
By intraperitoneal administration, 10 mg/kg of MK-801, which is NMDA receptor antagonist and is (5S,10R)-[…]-5-methyl-10,11-dihydro-5H-dibenzo[a,d]-cyclo-hepten-5,10-imine hydrogen maleate, was respectively administered to wild-type mice and NF-κBp50-deficient mice once daily for 7 days. 5 mM of NMDA was directly administered into vitreous thereof, and then the number of retinal ganglion cells after 24 hours was counted.
A control group was kept alike with administration for 2 weeks instead of administration of PBS for 7 days under above-mentioned control group. On the other hand, 3 mg/kg of […] was respectively administered to wild-type mice and NF-κBp50-deficient mice once daily for 2 weeks by intraperitoneal administration. 5 mM of NMDA was directly administered into vitreous thereof, and then the number of retinal ganglion cells after 24 hours was counted.

[3] = wild-type mice and NF-κBp50-deficient mice, injection of 50 mM NMDA into vitreous, FIG. 6

CN[C@H](CC(=O)O)C(=O)O [NMDA, N-methyl D aspartate]
cell death in GCL (ganglion cell layer) (retinal ganglion cells [1]; NF-κBp50-deficient mice): markedly induced cell death in GCL | ganglion cells dead within 96 hours (retinal ganglion cells [1]; NF-κBp50-deficient mice, injection of 5 nM NMDA into vitreous, FIG. 6): almost all | ganglion cells dead within 24 hours by apoptosis (retinal ganglion cells [1]; NF-κBp50-deficient mice, injection of 5 mM NMDA into vitreous, FIG. 6): about 60% | ganglion cells dead by apoptosis within 24 hours after NMDA treatment (retinal ganglion cells [1]; [3]): about half | ganglion cells dead by apoptosis within 96 hours (4 days) (retinal ganglion cells [1]; [3]): almost all | cell death in GCL (ganglion cell layer) (retinal ganglion cells [1]; wild-type mice): no significance was observed | ganglion cells survived at 4 days after NMDA treatment (retinal ganglion cells [1]; wild-type mice, injection of 5 mM NMDA into vitreous, FIG. 6): almost all

C=CC[C@@H]1/C=C(\C)C[C@H](C)C[C@H](OC)[C@H]2O[C@@](O)(C(=O)C(=O)N3CCCC[C@H]3C(=O)O[C@H](/C(C)=C/[C@@H]3CC[C@@H](O)[C@H](OC)C3)[C@H](C)[C@@H](O)CC1=O)[C@H](C)C[C@@H]2OC [KF506]
retinal ganglion cells dead by apoptosis within 24 hours after administration of NMDA (retinal ganglion cells [2]; NF-κBp50-deficient mice, 3 mg/kg intraperitoneal once daily for 2 weeks, FIG. 7f): no more than 34% | retinal ganglion cells dead by apoptosis within 24 hours after administration of NMDA (retinal ganglion cells [2]; wild-type mice, 3 mg/kg intraperitoneal once daily for 2 weeks, FIG. 7f): about 5%

COc1ccc(CN2CCN(C(c3ccc(F)cc3)c3ccc(F)cc3)CC2)c(OC)c1OC [lomerizine hydrochloride]
retinal ganglion cells dead by apoptosis within 24 hours after administration of NMDA (retinal ganglion cells [2]; NF-κBp50-deficient mice, 100 mg/kg orally via catheters once daily for 7 days, FIG. 7c): no more than 28% | retinal ganglion cells dead by apoptosis within 24 hours after administration of NMDA (retinal ganglion cells [2]; wild-type mice, 100 mg/kg orally via catheters once daily for 7 days, FIG. 7c): about 2%

C[C@]12N[C@H](Cc3ccccc31)c1ccccc12 [MK-801, (5S,10R)-(−)-5-methyl-10,11-dihydro-5H-dibenzo[a,d]-cyclo-hepten-5,10-imine hydrogen maleate]
retinal ganglion cells dead by apoptosis within 24 hours after administration of NMDA (retinal ganglion cells [2]; NF-κBp50-deficient mice, 10 mg/kg intraperitoneal once daily for 7 days, FIG. 7d): no more than 9% | effect of protecting retinal ganglion cells from NMDA-induced apoptosis (conclusion in words) (retinal ganglion cells [2]): had pharmacological effects of protecting retinal ganglion cells from NMDA-induced apoptosis | retinal ganglion cells dead by apoptosis within 24 hours after administration of NMDA (retinal ganglion cells [2]; wild-type mice, 10 mg/kg intraperitoneal once daily for 7 days, FIG. 7d): about 2%

CC12CC3CC(C)(C1)CC(N)(C3)C2 [memantine hydrochloride]
retinal ganglion cells dead by apoptosis within 24 hours after administration of NMDA (retinal ganglion cells [2]; NF-κBp50-deficient mice, 10 mg/kg intraperitoneal once daily for 7 days, FIG. 7b): about 15% | effect of protecting retinal ganglion cells from NMDA-induced apoptosis (conclusion in words) (retinal ganglion cells [2]): had pharmacological effects of protecting retinal ganglion cells from NMDA-induced apoptosis | retinal ganglion cells dead by apoptosis within 24 hours after administration of NMDA (retinal ganglion cells [2]; wild-type mice, 10 mg/kg intraperitoneal once daily for 7 days, FIG. 7b): about 3%
